From patent publication US20090317491A1, “MANUFACTURING METHOD OF MEDICAL STERILIZED ISOTONIC SOLUTION HAVING LOW-CONCENTRATEDLY CONTROLLED FREE CHLORINE INCLUDING HYPOCHLOROUS ACID THEREIN” (priority 2007, published 2009)

How the values were obtained:
[1] = Half-life time of HOCl in water / outside the body (FIG. 16); assay type: physicochemical; conditions: water (medical sterilized normal saline), neutral or subacid, outside of human body
Procedure: Especially, HOCl generated in the medical sterilized normal saline is very unstable in neutral or subacid area, and thus is tend to be reduced to a half only for 3 minutes. Therefore, the free chlorines should be supplied to patients within 3 minutes from manufacturing the medical normal saline. […] Therefore, prompt supply into the body right after manufacturing the medical normal saline can obtain enough time to sterilize or kill germs, fungi, bacteria, the causes of diseases.
FIG. 16 is a graph of the amount of the free chlorine in accordance with the 20 seconds operation time.

Escherichia coli = conditions: normal temperature; cited from earlier work
Pseudomonas aeruginosa = conditions: normal temperature; cited from earlier work
Staphylococcus aureus = conditions: normal temperature; cited from earlier work
[2] = system: Staphylococcus epidermidis; conditions: normal temperature; cited from earlier work
Micrococcus luteus = conditions: normal temperature; cited from earlier work
[3] = system: Corynebacterium amycolatum; conditions: normal temperature; cited from earlier work
Haemophilus influenzae = conditions: normal temperature; cited from earlier work
Proteus mirabilis = conditions: normal temperature; cited from earlier work
Staphylococcus hominis = conditions: normal temperature; cited from earlier work
[4] = system: Staphylococcus haemolyticus; conditions: normal temperature; cited from earlier work
[5] = system: Staphylococcus saprophyticus; conditions: normal temperature; cited from earlier work
Klebsiella pneumoniae = conditions: normal temperature; cited from earlier work
Serratia marcescens = conditions: normal temperature; cited from earlier work
Sterptococcus pyogenes = conditions: normal temperature; cited from earlier work
Enterobacter aerogenes = conditions: normal temperature; cited from earlier work
[6] = system: Methicillin-resistent Staphylococcus aureus; conditions: normal temperature; cited from earlier work
[7] = system: Vancomycin-resistent Enterococcus faecium; conditions: normal temperature; cited from earlier work
[8] = inside of a human body / mammal bodies; cited from earlier work
[9] = mucosa of a nose and eyes; cited from earlier work
[10] = HOCl versus OCl−; cited from earlier work

**Q.** With `OCl` [HOCl, Hypochlorous acid] as the compound, how does the half-life [1] read?
**A.** Its half-life is 3 min.

**Q.** And the MBC (Escherichia coli)?
**A.** The MBC was 0.7 ppm.

**Q.** And the MBC (Pseudomonas aeruginosa)?
**A.** Its MBC is 0.35 ppm.

**Q.** What about the MBC (Staphylococcus aureus) of the same compound?
**A.** Its MBC is 0.173 ppm.

**Q.** What about the MBC [2] of the same compound?
**A.** Its MBC is 0.338 ppm.

**Q.** And the MBC (Micrococcus luteus)?
**A.** The MBC was 2.77 ppm.

**Q.** And the MBC [3]?
**A.** The MBC was 0.169 ppm.

**Q.** And the MBC (Haemophilus influenzae)?
**A.** The MBC was 0.338 ppm.

**Q.** And the MBC (Proteus mirabilis)?
**A.** The MBC was 0.340 ppm.

**Q.** What about the MBC (Staphylococcus hominis) of the same compound?
**A.** Its MBC is 1.4 ppm.

**Q.** And the MBC [4]?
**A.** Its MBC is 0.338 ppm.

**Q.** What about the MBC [5] of the same compound?
**A.** Its MBC is 0.35 ppm.

**Q.** And the MBC (Klebsiella pneumoniae)?
**A.** The MBC was 1.7 ppm.

**Q.** And the MBC (Serratia marcescens)?
**A.** The MBC was 0.169 ppm.

**Q.** And the MBC (Sterptococcus pyogenes)?
**A.** Its MBC is 0.169 ppm.

**Q.** What about the MBC (Enterobacter aerogenes) of the same compound?
**A.** The MBC was 0.676 ppm.

**Q.** What about the MBC [6] of the same compound?
**A.** Its MBC is 0.682 ppm.

**Q.** And the MBC [7]?
**A.** The MBC was 2.73 ppm.

**Q.** And the half-life time [8]?
**A.** Its half-life time is 44 h.

**Q.** And the “concentration of HOCl that causes trouble on sensitive parts of human body and stench of the solution” value [9]?
**A.** The value was “over 6 ppm”.

**Q.** And the “sterilizing efficacy relative to OCl−” value [10]?
**A.** Its value is 80 times.
